Legend:
[1] = Radiation dosimetry from whole-body PET biodistribution; assay type: in vivo, rhesus monkeys; conditions: for maximum permissible single-study dosage: urinary bladder wall critical organ, 21 CFR 361.1
Procedure: Two whole-body biodistribution studies were performed in two rhesus monkeys (9.4 kg female and 17.0 kg male) to estimate human organ radiation dosimetry. Scans were carried out on a Biograph mCT (hybrid PET/CT, Siemens Medical Systems, Knoxville, TN) scanner following i.v. injections of 187.6 MBq (5.1 mCi) and 173.9 MBq (4.7 mCi) [^18F]SDM-16, and mass doses of 0.27 µg and 0.24 µg at time of injection, respectively. Monkeys were scanned for about 4 h in a sequence of 22–24 passes from top of the head to the mid-thigh. Scans were reconstructed and visually inspected for organ activity concentrations exceeding background level. The organs included were the brain, heart, liver, gall bladder, spleen, kidneys, and urinary bladder contents. Regions of interest were delineated on these organs, and mean activity values were computed to form TACs.
Within-pass decay correction was removed to reflect the actual activity in each organ, and cumulative activity (Bq^.h/cm^3) computed by integration of the data from the scan. The tail portions beyond the end of the scan were extrapolated assuming only physical decay of the tracer. These values were multiplied by the organ volumes of a standard 55-kg adult female reference and 70-kg adult male mathematical phantom, and then normalized to injected activity to obtain organ residence times (N, h). Final values were then entered into the OLINDA software to obtain absorbed doses in all organs, which were computed with different voiding assumptions.

[2] = Measurement of lipophilicity (octanol / PBS pH 7.4); assay type: physicochemical; conditions: octanol/PBS pH 7.4
[3] = Brain PET imaging with 1TC kinetic modeling; conditions: rhesus monkey, intravenous; for Kp / half-life: both
Procedure: A total of 10 PET imaging experiments with [^18F]SDM-16 were performed in rhesus monkeys (Macaca mulatta) according to a protocol approved by the Yale University Institutional Animal Care and Use Committee (IACUC). Four monkeys were studied. […] Body temperature was maintained by a water-jacket heating pad. The animal was attached to a physiological monitor, and vital signs (heart rate, blood pressure, respirations, SPO2, EKG, ETCO2, and body temperature) were continuously monitored. A venous line was inserted in one limb for administration of radiotracer, displacement, and blocking drugs. A catheter was placed in the femoral artery in the other limb for blood sampling. Dynamic PET brain scans were performed on a Focus 220 system (Siemens Medical Solutions, Knoxville, TN, USA) with a reconstructed image resolution of approximately 1.5 mm. After a 9-min transmission scan, the radioligand was injected i.v. over 3 min. by an infusion pump. Dynamic PET scans were performed for 3 h (baseline and blocking scans) or 4 h (displacement scan).
PET images were reconstructed with built-in corrections for attenuation, normalization, scatter, randoms, and deadtime. PET brain images were registered to the animal’s MR image, which was subsequently registered to a brain atlas to define the regions of interest. Dynamic images were reconstructed using a Fourier rebinning and filtered back projection algorithm. A rhesus monkey brain atlas was used for generation of regions of interest (ROIs) and time − activity curves (TACs) for the following ROIs: amygdala, brain stem, caudate nucleus, centrum semiovale (CS), cerebellum, cingulate cortex, frontal cortex, globus pallidus, hippocampus, insula, nucleus accumbens, occipital cortex, pons, putamen, substantia nigra, temporal cortex, and thalamus.
Volume of distribution (VT, mL·cm^−3) values and the first-order kinetic rate constants of tracer (K1) were derived through 1-tissue (1T) compartment kinetic modeling with the metabolite-corrected arterial plasma input function, which was calculated as the product of the fitted total plasma curve and the parent radiotracer fraction curve. Nondisplaceable volume of distribution (VND) and SV2A occupancy by LEV was calculated using the Lassen plot [32]. Nondisplaceable binding potential (BPND) values were calculated from VT values using CS as reference region, or the VND derived from the blocking study, i.e., BPND = (VT, ROI − VT, CS)/ VT, CS or BPND = (VT/VND) -1.

total ED of a single-study dosage ([1]; 185 MBq (5 mCi)): 3.9 mSv
mean organ radiation dose estimate ([1]; Adrenals, adult female phantom): 0.0157 mGv/MBq
mean organ radiation dose estimate ([1]; Adrenals, adult male phantom): 0.0135 mGv/MBq
mean organ radiation dose estimate ([1]; Brain, adult female phantom): 0.1032 mGv/MBq
mean organ radiation dose estimate ([1]; Brain, adult male phantom): 0.0732 mGv/MBq
mean organ radiation dose estimate ([1]; Breasts, adult female phantom): 0.0087 mGv/MBq
mean organ radiation dose estimate ([1]; Breasts, adult male phantom): 0.0073 mGv/MBq
average residence time N ([1]; Gall Bladder, Female): 0.015 h
average residence time N ([1]; Gall Bladder, Male): 0.021 h
mean organ radiation dose estimate ([1]; Gallbladder Wall, adult female phantom): 0.0441 mGv/MBq
mean organ radiation dose estimate ([1]; Gallbladder Wall, adult male phantom): 0.0484 mGv/MBq
mean organ radiation dose estimate ([1]; Heart Wall, adult female phantom): 0.0158 mGv/MBq
mean organ radiation dose estimate ([1]; Heart Wall, adult male phantom): 0.0137 mGv/MBq
average residence time N ([1]; Heart, Female): 0.015 h
average residence time N ([1]; Heart, Male): 0.017 h
mean organ radiation dose estimate ([1]; Kidneys, adult female phantom): 0.0454 mGv/MBq
mean organ radiation dose estimate ([1]; Kidneys, adult male phantom): 0.0478 mGv/MBq
mean organ radiation dose estimate ([1]; LLI Wall, adult female phantom): 0.0145 mGv/MBq
mean organ radiation dose estimate ([1]; LLI Wall, adult male phantom): 0.0114 mGv/MBq
mean organ radiation dose estimate ([1]; Liver, adult female phantom): 0.0538 mGv/MBq
mean organ radiation dose estimate ([1]; Liver, adult male phantom): 0.0454 mGv/MBq
mean organ radiation dose estimate ([1]; Lungs, adult female phantom): 0.0116 mGv/MBq
mean organ radiation dose estimate ([1]; Lungs, adult male phantom): 0.0096 mGv/MBq
mean organ radiation dose estimate ([1]; Muscle, adult female phantom): 0.0110 mGv/MBq
mean organ radiation dose estimate ([1]; Muscle, adult male phantom): 0.0093 mGv/MBq
mean organ radiation dose estimate ([1]; Osteogenic Cells, adult female phantom): 0.0188 mGv/MBq
mean organ radiation dose estimate ([1]; Osteogenic Cells, adult male phantom): 0.0147 mGv/MBq
mean organ radiation dose estimate ([1]; Ovaries, adult female phantom): 0.0147 mGv/MBq
mean organ radiation dose estimate ([1]; Pancreas, adult female phantom): 0.0154 mGv/MBq
mean organ radiation dose estimate ([1]; Pancreas, adult male phantom): 0.0134 mGv/MBq
mean organ radiation dose estimate ([1]; Red Marrow, adult female phantom): 0.0120 mGv/MBq
mean organ radiation dose estimate ([1]; Red Marrow, adult male phantom): 0.0098 mGv/MBq
average residence time N ([1]; Remainder, Female): 1.504 h
average residence time N ([1]; Remainder, Male): 1.608 h
mean organ radiation dose estimate ([1]; Skin, adult female phantom): 0.0087 mGv/MBq
mean organ radiation dose estimate ([1]; Skin, adult male phantom): 0.0073 mGv/MBq
mean organ radiation dose estimate ([1]; Small Intestine, adult female phantom): 0.0130 mGv/MBq
mean organ radiation dose estimate ([1]; Small Intestine, adult male phantom): 0.0116 mGv/MBq
mean organ radiation dose estimate ([1]; Spleen, adult female phantom): 0.0122 mGv/MBq
mean organ radiation dose estimate ([1]; Spleen, adult male phantom): 0.0104 mGv/MBq
mean organ radiation dose estimate ([1]; Stomach Wall, adult female phantom): 0.0125 mGv/MBq
mean organ radiation dose estimate ([1]; Stomach Wall, adult male phantom): 0.0107 mGv/MBq
average residence time N ([1]; Sum, Female): 2.621 h
average residence time N ([1]; Sum, Male): 2.621 h
mean organ radiation dose estimate ([1]; Testes, adult male phantom): 0.0090 mGv/MBq
mean organ radiation dose estimate ([1]; Thymus, adult female phantom): 0.0107 mGv/MBq
mean organ radiation dose estimate ([1]; Thymus, adult male phantom): 0.0089 mGv/MBq
mean organ radiation dose estimate ([1]; Thyroid, adult female phantom): 0.0101 mGv/MBq
mean organ radiation dose estimate ([1]; Thyroid, adult male phantom): 0.0098 mGv/MBq
mean organ radiation dose estimate ([1]; Total Body, adult female phantom): 0.0146 mGv/MBq
mean organ radiation dose estimate ([1]; Total Body, adult male phantom): 0.0119 mGv/MBq
mean organ radiation dose estimate ([1]; ULI Wall, adult female phantom): 0.0141 mGv/MBq
mean organ radiation dose estimate ([1]; ULI Wall, adult male phantom): 0.0119 mGv/MBq
mean organ radiation dose estimate ([1]; Urinary Bladder Wall, adult female phantom): 0.1368 mGv/MBq
mean organ radiation dose estimate ([1]; Urinary Bladder Wall, adult male phantom): 0.0762 mGv/MBq
average residence time N ([1]; Urinary Bladder, Female): 0.193 h
average residence time N ([1]; Urinary Bladder, Male): 0.143 h
mean organ radiation dose estimate ([1]; Uterus, adult female phantom): 0.0180 mGv/MBq
Effective Dose ([1]; adult female phantom): 0.0211 mGv/MBq
Effective Dose Equivalent ([1]; adult female phantom): 0.0316 mGv/MBq
Effective Dose ([1]; adult male phantom): 0.0156 mGv/MBq
Effective Dose Equivalent ([1]; adult male phantom): 0.0246 mGv/MBq
absorbed dose ([1]; brain, female): 0.1032 mGy/MBq
average residence time N ([1]; brain, female): 0.532 h
absorbed dose ([1]; brain, male): 0.0732 mGy/MBq
average residence time N ([1]; brain, male): 0.430 h
effective dose (ED) ([1]; female): 21.1 µSv/MBq
maximum permissible single-study dosage ([1]; female): 365.6 MBq
absorbed dose ([1]; gallbladder wall, female): 0.0441 mGy/MBq
absorbed dose ([1]; gallbladder wall, male): 0.0484 mGy/MBq
absorbed dose ([1]; kidneys, female): 0.0454 mGy/MBq
average residence time N ([1]; kidneys, female): 0.057 h
absorbed dose ([1]; kidneys, male): 0.0478 mGy/MBq
average residence time N ([1]; kidneys, male): 0.067 h
absorbed dose ([1]; liver, female): 0.0538 mGy/MBq
average residence time N ([1]; liver, female): 0.305 h
absorbed dose ([1]; liver, male): 0.0454 mGy/MBq
average residence time N ([1]; liver, male): 0.335 h
effective dose (ED) ([1]; male): 15.6 µSv/MBq
maximum permissible single-study dosage ([1]; male): 656.0 MBq
absorbed dose ([1]; urinary bladder wall, female): 0.1368 mGy/MBq
absorbed dose ([1]; urinary bladder wall, male): 0.0762 mGy/MBq
logP [2]: 1.65 ± 0.05
Kp ([3]; brain (caudate)): 21.6 ± 4.9
Kp ([3]; brain (centrum semiovale)): 6.6
half-life ([3]; brain (centrum semiovale)): 1.38 ± 0.3 h
Kp ([3]; brain (cerebellum)): 21.5 ± 3
Kp ([3]; brain (cingulate cortex)): 31.3
half-life ([3]; brain (insular cortex)): 2.53 ± 0.817 h
Kp ([3]; brain (putamen)): 26 ± 6.8
Kp ([3]; brain (thalamus)): 21.6 ± 4.9
fraction unbound ([3]; brain tissue): 0.27
SMILES: Cc1nccn1CN1C[C@@H](c2cc(F)cc([18F])c2)CC1=O [[^18F]SDM-16, (R)-4-(3-fluoro-5-(fluoro-^18F)phenyl)-1-((2-methyl-1H-imidazol-1-yl)methyl)pyrrolidin-2-one]
